Reference: publication PMC3681751, “Identification of a Novel Antimicrobial Peptide from Human Hepatitis B Virus Core Protein Arginine-Rich Domain (ARD)” (PLoS Pathogens, 2013)
Read-outs that look alike come from different tables or passages of the source. Residues, ends and D or L forms follow the SMILES beside them.

Legend:
HEK293 cells = experiment: CFSE cell proliferation assay; format: cell-based, human; details: 5, 25 and 100 µM for 1 hour; flow cytometry
Procedure: (§1) To set up CFSE cell proliferation assay, 293 cells (human kidney origin) and Vero cells (monkey kidney origin) were resuspended in PBS to a final concentration of 10^6 cells/ml, before incubation with 10 µM CFSE dye (CellTrace CFSE cell proliferation kit, Invitrogen) at 37°C for 10 min. To quench the staining, ice-old culture media were then added and incubated on ice for 5 min. Labeled cells were then pelleted and washed three times by fresh medium containing 10% FBS before seeding into six well plates at a density of 3.3×10^5cells/well. After 20 h, the medium was removed and incubated with fresh medium containing 5, 25 and 100 µM HBc 147-183 for one hour (FITC-labeled ARD peptide had been largely internalized in 10 minutes after the addition of ARD peptides to the medium of HepG2 cells). Forty-eight hours later, cells were harvested and analyzed by flow cytometry (FACSCanto, BD Bioscience).

HepG2 cells = experiment: Peptide uptake into mammalian cells; format: cell-based, human; details: data not shown
Procedure: as §1

Vero cells = experiment: CFSE cell proliferation assay; format: cell-based, monkey; details: 5, 25 and 100 µM for 1 hour; flow cytometry
Procedure: as §1

S. aureus (ATCC 29213) = format: cell-based, Staphylococcus aureus
Outline: (§2)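 Bacteria were grown overnight at 37°C in Mueller–Hinton broth and diluted at mid-log phase to 10^6 CFU/ml in pH 7.2 sodium phosphate/NaCl buffer. Peptide dilutions in that buffer were added, then 3 h static incubation at 37°C. Plating on agar overnight gave the minimal bactericidal concentration.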

S. aureus (ATCC 19636) = format: cell-based, Staphylococcus aureus
Outline: as §2

S. aureus (ATCC 25923) = format: cell-based, Staphylococcus aureus
Outline: as §2

[1] = test system: Staphylococcus aureus ATCC 19636; experiment: Bacterial load in infected mice; format: in vivo, mouse; details: 10 mg/kg i.p. at 1 hour, sampled 4 hours post-inoculation, n = 5
Procedure: Three-week old male ICR mice (19 to 21 g) were purchased from BioLASCO (Taiwan). Overnight culture of bacteria in BHI broth (Difco) was subcultured in fresh BHI broth to log phase. Inoculums were diluted in BHI broth to indicated densities. To test the acute toxicity of ARD peptide in vivo, ICR male mice were inoculated intraperitoneally (i.p.) with 10 and 20 mg/kg HBc147-183 in PBS, respectively. Each group contained 5 mice. After peptide injection, the number of dead mice was recorded daily for 7 days post-injection. To test the antimicrobial activity of the ARD peptide in vivo, all mice were inoculated i.p. with Staphylococcus aureus ATCC 19636 (4×10^6 CFU/mouse) in BHI broth. Peptide HBc147-183 (10 mg/kg) was administered i.p. at 1, 1.5 and 2 hours post-inoculation. PBS (10 ml/kg) control was administered at 1 hour post-inoculation. […] Mortality was monitored daily for 7 days post-inoculation. […] The mice were anesthetized first before transferring to the IVIS imaging system (IVIS spectrum), and luminescence was measured with an exposure time of 1 minutes or less. The image system measured the number of photons and translated the data to false color images that depicted the region of strong luminescence with red, moderate luminescence with yellow and green, and mild luminescence with blue. […] Total flux (RLU) of region of interest (ROI) was quantified by the IVIS imaging software.

pSUPER plasmid DNA = experiment: Gel retardation assay (DNA binding); details: 30 minutes at 37°C, 1% agarose gel; N/P = peptide amino nitrogen / DNA phosphate
Procedure: The proportion between amino nitrogen (NH3 ^+) of HBc147-183 and phosphate (PO4 ^−) of DNA was defined as N/P ratio [35]. Briefly, HBc147-183 was incubated with pSUPER plasmid DNA at different N/P ratio (0, 0.2, 0.4, 0.6, 0.8, 1, 2, 3 and 4) for 30 minutes at 37°C. The mobility of pSUPER plasmid DNA was analyzed by electrophoresis on 1% agarose gel.

[2] = methicillin-resistant strain, 3 h at 37°C in phosphate buffer pH 7.2, triplicate

CC(C)[C@H](NC(=O)[C@@H](NC(=O)[C@@H](N)[C@@H](C)O)C(C)C)C(=O)N[C@@H](CCCNC(=N)N)C(=O)N[C@@H](CCCNC(=N)N)C(=O)N[C@@H](CCCNC(=N)N)C(=O)NCC(=O)N[C@@H](CCCNC(=N)N)C(=O)N[C@@H](CO)C(=O)N1CCC[C@H]1C(=O)N[C@@H](CCCNC(=N)N)C(=O)N[C@@H](CCCNC(=N)N)C(=O)N[C@@H](CCCNC(=N)N)C(=O)N[C@H](C(=O)N1CCC[C@H]1C(=O)N[C@@H](CO)C(=O)N1CCC[C@H]1C(=O)N[C@@H](CCCNC(=N)N)C(=O)N[C@@H](CCCNC(=N)N)C(=O)N[C@@H](CCCNC(=N)N)C(=O)N[C@@H](CCCNC(=N)N)C(=O)N[C@@H](CO)C(=O)N[C@@H](CCC(N)=O)C(=O)N[C@@H](CO)C(=O)N1CCC[C@H]1C(=O)N[C@@H](CCCNC(=N)N)C(=O)N[C@@H](CCCNC(=N)N)C(=O)N[C@@H](CCCNC(=N)N)C(=O)N[C@@H](CCCNC(=N)N)C(=O)N[C@@H](CO)C(=O)N[C@@H](CCC(N)=O)C(=O)N[C@@H](CO)C(=O)N[C@@H](CCCNC(=N)N)C(=O)N[C@@H](CCC(=O)O)C(=O)N[C@@H](CO)C(=O)N[C@@H](CCC(N)=O)C(=O)N[C@@H](CS)C(=O)O)[C@@H](C)O [HBc147-183] (H-TVVRRRGRSPRRRTPSPRRRRSQSPRRRRSQSRESQC-OH; N-terminus and C-terminus assumed)
Effect on cell proliferation (CFSE intensity, day 3 vs mock) (HEK293 cells): no significant effect | Penetration through the cell membrane (HepG2 cells): can penetrate through the cell membrane | Effect on cell proliferation (CFSE intensity, day 3 vs mock) (Vero cells): no significant effect | Antimicrobial activity, MBC (S. aureus (ATCC 29213); ATCC 29213, 3 h, pH 7.2): 4 µM | Antimicrobial activity, MBC (S. aureus (ATCC 29213); [2]): 18.36 µg/mL | MBC against S. aureus (S. aureus (ATCC 19636); ATCC 19636, 3 h): around 4 µM | Antimicrobial activity, MBC (S. aureus (ATCC 19636); ATCC 19636, 3 h, pH 7.2): 4 µM | Antimicrobial activity, MBC (S. aureus (ATCC 19636); [2]): 18.36 µg/mL | Antimicrobial activity, MBC (S. aureus (ATCC 25923); ATCC 25923, 3 h, pH 7.2): 4 µM | Antimicrobial activity, MBC (S. aureus (ATCC 25923); [2]): 18.36 µg/mL | Bacterial load in blood, liver and spleen [1]: ~10^4 cfu/ml | Reduction of bacterial load in blood, liver and spleen vs PBS control ([1]; P<0.01): 100 fold | N/P ratio at which plasmid DNA was completely retarded (pSUPER plasmid DNA): 1
